# Values of other authors as cited in patent US20260021122A1, “CANNABINOIDS AND USES THEREOF IN TREATMENT OF A DISEASE” (TECHNION RESEARCH & DEVELOPMENT FOUNDATION LIMITED, priority 2022, published 2026).
# Assays:
# MDSCs = conditions: one study, literature; cited from earlier work
# [1] = tested on: triple-negative breast cancer; conditions: conditioned media from CBD-treated cancer cells, literature; cited from earlier work
Compound,antitumor effects (MDSCs),suppressive immune cell population of MDSCs (MDSCs),levels of CCL3 [1],levels of Granulocyte-macrophage (GM)-CSF [1]
"CCCCC/C=C\C/C=C\C/C=C\C/C=C\CCCC(=O)OC(CO)CO [2-AG, 2-arachidonoylglycerol]",exhibits direct antitumor effects,increasing the suppressive immune cell population of MDSCs,,
"C=C(C)[C@@H]1CCC(C)=C[C@H]1c1c(O)cc(CCCCC)cc1O [CBD, Cannabidiol]",,,lowered the levels,lowered the levels
